Results on eleven molecules are retold here after ChEMBL document CHEMBL4145494, “Synthesis and biological evaluation of aurora kinases inhibitors based on N-trisubstituted pyrimidine scaffold” (Eur J Med Chem, 2018).

In experiment [1] the test system is K562. In words: Antiproliferative activity against human K562 cells after 48 hrs by CCK8 assay. Type of experiment: functional, cell-based. Conditions: K562, 48 h. (Tetrazolium dyes change colour on reduction, which living cells bring about.)
Experiment [2] relates to MCF7. In words: Antiproliferative activity against human MCF7 cells after 48 hrs by CCK8 assay. Type of experiment: functional, cell-based. Conditions: MCF7, 48 h.
In experiment [3] the test system is HeLa. In words: Antiproliferative activity against human HeLa cells after 48 hrs by CCK8 assay. In kind it is functional, cell-based.
Experiment [4] deals with U-937. In words: Antiproliferative activity against human U937 cells after 48 hrs by CCK8 assay. In kind it is functional, cell-based. The note with it: U-937, 48 h.
Experiment [5] addresses Aurora kinase B (Homo sapiens, UniProt Q96GD4). The experiment is described as follows: Inhibition of AURKB (unknown origin) using FAM-labeled peptide substrate preincubated for 10 mins followed by substrate addition measured after 60 mins by caliper assay.
The target in experiment [6] is T1, Aurora kinase A (Homo sapiens, UniProt O14965).
T1 sequence (O14965 whole entry): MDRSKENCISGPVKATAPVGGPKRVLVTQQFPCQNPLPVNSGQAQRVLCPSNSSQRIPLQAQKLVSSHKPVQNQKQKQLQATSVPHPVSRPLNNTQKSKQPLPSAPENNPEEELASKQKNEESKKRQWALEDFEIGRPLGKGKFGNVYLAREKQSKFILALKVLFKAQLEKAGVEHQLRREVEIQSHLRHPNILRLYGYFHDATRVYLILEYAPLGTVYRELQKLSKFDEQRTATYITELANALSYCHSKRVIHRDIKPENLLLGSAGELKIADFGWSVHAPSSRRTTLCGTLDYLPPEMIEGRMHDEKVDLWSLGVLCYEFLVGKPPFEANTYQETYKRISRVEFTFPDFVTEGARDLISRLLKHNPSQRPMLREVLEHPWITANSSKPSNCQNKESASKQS
In words: Inhibition of AURKA (unknown origin) using FAM-labeled peptide substrate preincubated for 10 mins followed by substrate addition measured after 60 mins by caliper assay.

The subject of experiment [7] is A-431. In words: Antiproliferative activity against human A431 cells after 48 hrs by CCK8 assay. Type of experiment: functional, cell-based. The note with it: A-431, 48 h.
Experiment [8] relates to HCT-116. The experiment is described as follows: Antiproliferative activity against human HCT116 cells after 48 hrs by CCK8 assay. Type of experiment: functional, cell-based. The note with it: HCT-116, 48 h.
Experiment [9] has as its system MDA-MB-231. The experiment is described as follows: Antiproliferative activity against human MDA-MB-231 cells after 48 hrs by CCK8 assay. In kind it is functional, cell-based. The note with it: MDA-MB-231, 48 h.
Experiment [10] has as its system MDA-MB-231. The experiment is described as follows: Induction of chromosome alignment defects in human MDA-MB-231 cells at 1 uM after 48 hrs by DAPI staining based immunofluorescence assay. In kind it is functional, cell-based.
For experiment [11], the system named is MDA-MB-231. In words: Inhibition of alpha-tubulin in human MDA-MB-231 cells assessed as abolishment of regular location of protein at 0.5 uM after 48 hrs by DAPI staining based immunofluorescence assay. Type of experiment: cell-based.
Experiment [12] concerns MDA-MB-231. In words: Induction of aberrant spindle formation with tripolar and tetrapolar occurrence in human MDA-MB-231 cells at 1 uM after 48 hrs by DAPI staining based immunofluorescence assay. In kind it is functional, cell-based.

Activity calls are given as the source filed them. The rule behind the calls is not given here.

Aurora kinase B, sequence (Q96GD4 whole entry): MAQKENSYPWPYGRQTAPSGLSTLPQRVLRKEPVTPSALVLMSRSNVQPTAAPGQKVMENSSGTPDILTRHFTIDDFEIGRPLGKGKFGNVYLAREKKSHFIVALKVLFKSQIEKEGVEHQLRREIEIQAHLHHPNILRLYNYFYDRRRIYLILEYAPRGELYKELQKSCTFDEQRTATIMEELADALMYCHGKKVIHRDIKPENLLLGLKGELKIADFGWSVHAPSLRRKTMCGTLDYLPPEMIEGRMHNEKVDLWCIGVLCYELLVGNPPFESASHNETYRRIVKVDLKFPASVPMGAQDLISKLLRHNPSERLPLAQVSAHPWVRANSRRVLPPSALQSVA

A word on the IC50: it is the concentration that inhibits the measured activity by half. Higher therefore signals lower potency. Consider `Cc1cc(Nc2cc(N3CCN(C)CC3)nc(Nc3ccc(Cl)c(F)c3)n2)n[nH]1`, for which the IC50 in experiment [1] stood at 0.218 µM; in experiment [2], 0.818 µM; in experiment [3], 0.374 µM; in [4] it was 0.0248 µM; in experiment [5] it was 0.101 µM; in experiment [6] it was 0.031 µM. In addition, the IC50 in experiment [7] worked out at 0.136 µM; in [8], 0.252 µM; in experiment [9], 0.155 µM.
Consider `Cc1cc(Nc2cc(N3CCN(C)CC3)nc(Nc3ccc(F)c(F)c3)n2)n[nH]1`, for which the IC50 was 0.195 µM in [1]; 1.29 µM in experiment [2]; 0.438 µM in experiment [3]; 0.0299 µM in experiment [4]; 0.0892 µM in experiment [5]; 0.017 µM in experiment [6]. Further, the figures for the IC50 in [7], in experiment [8] and in experiment [9] were 0.177 µM, 0.339 µM and 0.16 µM, respectively.
Turning to `Cc1cc(Nc2cc(N3CCN(C)CC3)nc(Nc3ccc4c(c3)OCO4)n2)n[nH]1`, the IC50 in [1] amounted to 0.233 µM; in experiment [2], 0.911 µM; in experiment [3], 0.457 µM; in experiment [4], 0.0584 µM; in [5], 0.0917 µM; in [6], 0.02 µM. Besides, the IC50 was determined as 0.419 µM in [7], 0.719 µM in [8] and 0.206 µM in [9].
Turning to `Cc1cc(Nc2cc(N3CCN(C)CC3)nc(Nc3ccc(F)cc3)n2)n[nH]1`, the IC50 was found to be 0.357 µM in [1]; 0.873 µM in experiment [2]; 0.68 µM in experiment [3]; 0.0432 µM in experiment [4]; 0.0751 µM in [5]; 0.023 µM in [6]. Moreover, the IC50 in experiment [7] was found to be 0.34 µM; in [8], 0.653 µM; in experiment [9], 0.255 µM.
Regarding `COc1ccc(Nc2nc(Nc3cc(C)[nH]n3)cc(N3CCN(C)CC3)n2)cc1OC`, the IC50 in [1] amounted to 0.462 µM; in experiment [2], 6.54 µM; in experiment [3], 0.678 µM; in [4] it was 0.15 µM; in experiment [5], 0.452 µM; in [6], 0.038 µM. The values for the concentration for half-maximal inhibition (IC50) in experiment [7], in experiment [8] and in [9] were 0.778 µM, 0.777 µM and 0.459 µM, respectively.
Take `COC(=O)c1ccc(Nc2nc(Nc3cc(C)[nH]n3)cc(N3CCN(C)CC3)n2)cc1OC`: the IC50 amounted to 0.762 µM in [1]; 10.3 µM in [2]; 0.872 µM in [3]; 0.545 µM in experiment [4]; 0.442 µM in experiment [5]; 0.067 µM in experiment [6]. Besides, the IC50 in [7] amounted to 1.22 µM; in [8], 1.14 µM; in experiment [9] it was 0.872 µM.
Consider `Cc1cc(Nc2cc(N3CCOCC3)nc(Nc3ccc(F)c(Cl)c3)n2)n[nH]1`, for which the IC50 in experiment [1] was 0.213 µM; in [2], 0.577 µM; in experiment [3], 0.464 µM; in experiment [4] it was 0.024 µM; in [5] it was 0.0346 µM; in experiment [6], 0.0063 µM. For the same molecule, it took 0.101 µM to reach half-maximal inhibition in experiment [9] (IC50).
Consider `COc1cc(Nc2ncc3c(n2)-c2ccc(Cl)cc2C(c2c(F)cccc2OC)=NC3)ccc1C(=O)O`, for which the result in [10] and in experiment [12] was Active. In experiment [11], the inhibition entry is “Active”.
Consider `Cc1cc(Nc2cc(N3CCN(C)CC3)nc(Nc3cccc(F)c3)n2)n[nH]1`, for which the IC50 worked out at 0.184 µM in [1]; 1.26 µM in [2]; 0.486 µM in experiment [3]; 0.0331 µM in experiment [4]; 0.102 µM in [5]; 0.025 µM in [6]. The figures for the IC50 in experiment [7], in experiment [8] and in experiment [9] were 0.201 µM, 0.317 µM and 0.166 µM, respectively.
For the molecule `Cc1cc(Nc2cc(N3CCN(C)CC3)nc(Nc3ccc(Cl)c(Cl)c3)n2)n[nH]1`, the IC50 in experiment [1] stood at 0.128 µM; in [2], 0.552 µM; in experiment [3], 0.299 µM; in experiment [4] it was 0.0179 µM; in experiment [5], 0.05 µM; in [6] it was 0.033 µM. Besides, the IC50 is 0.129 µM in experiment [7], 0.106 µM in experiment [8] and 0.0849 µM in experiment [9].
For `COC(=O)c1ccc(Nc2nc(Nc3cc(C)[nH]n3)cc(N3CCN(C)CC3)n2)cc1F`, the IC50 was 0.393 µM in [1]; 7.63 µM in experiment [2]; 0.507 µM in experiment [3]; 0.0942 µM in experiment [4]; 0.145 µM in experiment [5]; 0.035 µM in experiment [6]. Also, the IC50 amounted to 0.375 µM in experiment [7], 0.688 µM in [8] and 0.238 µM in [9].
